{"source": "patent US20150150909A1", "about": "“ANTI-GLYCATION METHODS AND COMPOSITIONS” (CORE INTELLECTUAL PROPERTIES HOLDINGS, LLC, priority 2007, published 2015)", "key": {"[1]": {"test_system": "Normal human dermal fibroblasts (NHDF)", "assay": "AGE in extracellular matrix collagen of glucose-treated NHDF, anti-AGE antibody spot blot (Example 2)", "assay_type": "cell-based", "settings": "1 mg/ml; for Intensity (AU): single replicates, hydrochloride", "procedure": "Normal human dermal fibroblasts (NHDF) were cultivated in conditions that allow the synthesis of high amounts of extracellular matrix (ECM). NHDF were grown to confluence in normal medium in adequate format. Vitamin C was added to the media to induce matrix synthesis/deposition Cells were treated, (or not treated for the negative control) by three concentrations of the mineral extract composition or by a reference compound for a positive control (aminoguanidine). All the conditions were performed in triplicate. An excess of glucose was added to the cells and the cells were incubated at 37° C. for 15 days. At the end of the time, ECM proteins (mainly collagen) were extracted and purified and a fraction of each sample was loaded onto nitrocellulose in reproducible spots. The introduction of AGEs in collagen was shown using an anti-AGE antibody and it was labeled using a peroxidase conjugate and chemiluminescent reaction (ECL). Relative signal qualification was performed using a chemiluminescense imager."}, "albumin [2]": {"test_system": "albumin", "assay": "AGE formation in the albumin/glucose model system (Example 11)", "assay_type": "biochemical", "procedure": "Mineral extract composition (TL, ˜3% Solution) and a mogroside/mineral extract composition (SS II), Luo Han Guo Extract (L, Lot #MOG01-060502), Erythritol (E, Lot #07J241BP952) and Xylitol (X, Lot #H125T7G1) were kept at room temperature. […] The positive inhibitor control was aminoguanindine hydrochloride (AG) at 1 mM, (Sigma 396494). Protein glycation was detected by the increase of non-tryptophan fluorescence (excitation at 360 nm, emission at 460 nm) using microplate fluorometer Cytofluor 2350 (Millipore), as previously described (Argirova and Argirov, 2003). The glycation value for each experimental point was obtained by subtracting the background reading (samples without glucose) and was expressed as % of control (water)."}, "albumin [3]": {"test_system": "albumin", "assay": "Albumin/glucose anti-glycation assay (Example 1)", "assay_type": "biochemical", "settings": "1 mM; positive control; FIG. 1", "procedure": "Each reaction mixture contained 10 mg/ml albumin (Sigma) in PBS with 500 mM glucose (Sigma G8270) in PBS. The negative control was 10 mg/ml albumin without glucose. A negative control was used for each experimental point. The positive control was 10 mg/ml albumin with 500 mM glucose with 1 mM aminoguanidine hydrochloride (Sigma 396494).\nEach mineral extract composition was diluted in type I sterile water to 10 mg/ml sterilized by 0.22 micron filtration and incubated at dilutions 100 ug/ml, 10 ug/ml, 1 ug/ml and 0.1 ug/ml with the reaction mixture with or without glucose for 11 days at 37° C. in the presence of sodium azide.\nProtein glycation was detected by the increase of non-tryptophan fluorescence (excitation at 360 nm, emission at 460 nm) using microplate fluorometer Cytofluor 2350 (Millipore), as described (Argirova and Argirov, 2003). The glycation value for each experimental point was obtained by subtracting the background reading (samples without glucose)."}, "human dermal fibroblasts": {"test_system": "human dermal fibroblasts", "assay": "MTT mitochondrial metabolism assay (Example 10)", "assay_type": "cell-based", "description": "The objective of this Example was to test the effect of 4 samples: A mogroside/mineral extract composition (Labeled—1 in FIG. 6A), mineral extract composition (Labeled—2 in FIG. 6A), Sucralose liquid concentrate (Labeled—3 in FIG. 6A) and erythritol (Labeled—4 in FIG. 6A) on the mitochondrial metabolism I fibroblast populations, using MTT assay. MTT assay measures the activity of succinate dehydrogenase, a key enzyme in the respiratory electron transport chain in mitrochondria (Berridge & Tan, 1993).\nTest materials-were mogroside/mineral extract composition as made above in Example 9, mineral extract composition (˜3% Solution), Sucralose Liquid Concentrate (25% Sucralose by weight)—lot #F2304B311LB and Erythritol (25% Aqueous Solution)—lot #RFA 2104-35, and were kept at room temperature. Materials were diluted in type I sterile water, filtered through a 0.22μ filter and assayed at final concentrations of 2.5%, 0.5% and 0.05% (v:v) on human dermal fibroblasts (Invitrogen) for 72 h in high glucose DMEM medium with 5% calf serum.\nIn order to measure mitochondrial metabolism in whole cell populations, at the end of the experiment, MTT (3-(4,5-dimethylthiazol-2-yl)-2,5-diphenyltetrazolium bromide, Sigma cat. #M 5655) was added to cell cultures and incubation was continued for an additional 2 hours. Culture media were then discarded and intracellular MTT reduction product formazan was solubilized in 90% isopropanol. The colorimetric signal proportional to the mitochondrial activity in the cell cultures was measured with the BioRad microplate spectrophotometer 3550-UV at 570 nm."}, "[4]": {"test_system": "adult human dermal fibroblasts (aHDF)", "assay": "Type I collagen sandwich ELISA in aHDF conditioned medium (Example 9)", "assay_type": "cell-based", "settings": "all concentrations tested (0.5%, 0.1%, 0.05%, 0.01% w:v); 72 h", "procedure": "A mineral extract composition (TL), Lot #100-151106, ˜3% Solution, and a mogroside/mineral extract composition as taught herein (SS II), mogrosides of Luo Han Guo Extract (Luo HG, Lot #MOG01-060502), Erythritol (Eryt, Lot #07241BP952) and Xylitol (Xylit, Lot #H125T7G1) were tested in the assay. All test materials were kept at room temperature. […] Water was the non-treated control and magnesium ascorbyl phosphate (MAP cat. #A8960, Sigma, St. Louis, Mo.) was the positive control. Cell culture conditioned media were harvested 72 h after the start of the experiment and tested for type I collagen by sandwich ELISA using affinity-purified antibodies, followed by streptavidin-avidin-HRP conjugate and ABTS, according to standard ELISA protocol (Dobak et al., 1994, Zhao et al, 2005). The colorimetric signal proportional to collagen content was measured with the BioRad microplate spectrophotometer 3550-UV at 405 nm."}, "[5]": {"test_system": "Normal human dermal fibroblasts", "assay": "Type I collagen sandwich ELISA in fibroblast conditioned medium (Example 4)", "assay_type": "cell-based", "settings": "positive control; 5 days; FIG. 3", "procedure": "Normal human dermal fibroblasts (passage 7, lot #7F1254, Cambrex, Walkersville, Md.) were seeded in a 96-well plate (plate #431) in DMEM medium (high glucose) containing 5% fetal calf serum, and grown to late subconfluent stage. Aqueous solutions of mineral extract composition were prepared in sterile Type I water and added to cell cultures at 1/20 dilution. Water was the non-treated control and magnesium ascorbyl phosphate (MAP cat. #A8960, Sigma, St. Louis, Mo.) was the positive control. Cell culture conditioned media were harvested 5 days after the start of the experiment and tested for type I collagen by sandwich ELISA using affinity-purified antibodies, followed by streptavidin-avidin-HRP conjugate and ABTS, according to standard ELISA protocol (Dobak et al., 1994, Zhao et al, 2005).\nThe colorimetric signal proportional to collagen content was measured with the BioRad microplate spectrophotometer 3550-UV at 405 nm. See FIG. 3, Effect of mineral extract composition on type I collagen in HDF-conditioned medium."}, "[6]": {"test_system": "human dermal fibroblasts from a donor", "assay": "MTT mitochondrial metabolism assay (Example 3)", "assay_type": "cell-based", "procedure": "The objective of this assay was to test the effect of mineral extract compositions (6 lots) on the mitochondrial metabolism in a cell culture population, using MTT assay. MTT assay measures the activity of succinate dehydrogenase, a key enzyme in the respiratory electron transport chain is mitochondria (Berridge & Tan, 1993).\nMineral extract compositions were diluted in type I sterile water to 10 mg/ml, sterilized by 0.22 micron filtration and incubated at dilutions 500 ug/ml, 50 ug/ml and 5 ug/ml and 0.5 ug/ml with 2,500 human dermal fibroblasts from a donor (Cascade Biologics, lot #061215-901) per well for 72 h in high glucose DMEM medium with 2.5% calf serum.\nFor mitochondrial metabolism measurement, at the end of the experiment, MTT (3-(4,5-dimethylthiazol-2-yl)-2,5-diphhenyltetrazolium bromide, Sigma cat. #M 5655) was added to cell cultures and incubated for 2 h. Culture media were then discarded and intracellular MTT reduction product formazan was solubilized in 100% DMSO. The colorimetric signal proportional to the mitochondrial activity in the cell cultures was measured with the BioRad microplate spectrophotometer 3550-UV at 570 nm.\nThe mitochondrial metabolism was standardized with regard to cell numbers by establishing the ratio of the two corresponding signals."}, "[7]": {"test_system": "Clostridium collagenase IV", "assay": "Metalloproteinase (collagenase) activity, Enzcheck quenched fluorescent gelatin (Example 5)", "assay_type": "biochemical", "settings": "100 ug/ml; positive control", "procedure": "Metalloproteinase (MP) (collagenase) activity was measured with Enzcheck kit from Molecular Probes (Invitrogen, IL) using quenched fluorescent gelatin and Clostridium collagenase IV, a generic metalloproteinase. Mineral extract composition, in dilutions of 500 ug/ml, 50 ug/ml and 5 ug/ml and 0.5 ug/ml, were incubated in the presence of collagenase substrate-quenched fluorescin-linked gelatin and in the presence of the proteolytic enzyme collagenase. Phenanthroline, a potent MP inhibitor was used as positive control at 100 ug/ml. The kinetics of the release of the digested, fluorescent gelatin were measured at excitation/emission wavelengths of 485/530 nm with Millipore Cytofluor 2350 microfluorometer."}, "[8]": {"settings": "2.5%, 0.5% and 0.05% (v:v), 72 h, FIG. 6A"}}, "note": "“And” between values parts separate entries of the source, which are not always exact repeats. Equal values may be shown once.", "data": [{"compound": "Cl.N=C(N)NN", "note": "[Aminoguanidine, aminoguanidine hydrochloride]", "values": [{"measurement": "% Control", "setting": "[1]; First membrane", "value": 62, "unit": "%"}, {"measurement": "Average", "setting": "[1]; First membrane", "value": 33454, "unit": "AU"}, {"measurement": "Intensity (AU)", "setting": "[1]; First membrane", "value": "38328 AU and 37316 AU and 24719 AU"}, {"measurement": "% Control", "setting": "[1]; Membrane 2", "value": 64, "unit": "%"}, {"measurement": "Average", "setting": "[1]; Membrane 2", "value": 38752, "unit": "AU"}, {"measurement": "Intensity (AU)", "setting": "[1]; Membrane 2", "value": "38464 AU (2×) and 41333 AU (2×) and 36460 AU (2×)"}, {"measurement": "glycation-inhibitory activity", "setting": "albumin [2]; 1 mM, positive inhibitor control", "value": "strong glycation-inhibitory activity"}, {"measurement": "inhibitory activity on albumin glycation", "setting": "albumin [3]", "value": "good inhibitory activity"}]}, {"compound": "OC[C@@H](O)[C@@H](O)CO", "note": "[Erythritol]", "values": [{"measurement": "effect on mitochondrial metabolism (MTT)", "setting": "human dermal fibroblasts; [8]", "value": "no activity"}, {"measurement": "glycation-inhibitory effect", "setting": "albumin [2]; at lower concentrations", "value": "moderate inhibitory effect"}, {"measurement": "collagen-stimulatory activity", "setting": "[4]", "value": "no significant activity"}]}, {"compound": "O=C1O[C@H]([C@@H](O)CO)C([O-])=C1OP(=O)([O-])[O-].O=C1O[C@H]([C@@H](O)CO)C([O-])=C1OP(=O)([O-])[O-].[Mg+2].[Mg+2].[Mg+2]", "note": "[MAP, magnesium ascorbyl phosphate]", "values": [{"measurement": "stimulation of collagen I", "setting": "[5]", "value": "Strong stimulation"}]}, {"compound": "OC[C@H]1O[C@H](O[C@]2(CCl)O[C@H](CCl)[C@@H](O)[C@@H]2O)[C@H](O)[C@@H](O)[C@H]1Cl", "note": "[Sucralose]", "values": [{"measurement": "effect on mitochondrial metabolism (MTT)", "setting": "human dermal fibroblasts; [8]", "value": "inhibited cell metabolism"}]}, {"compound": "OC[C@@H](O)[C@H](O)[C@@H](O)CO", "note": "[Xylitol]", "values": [{"measurement": "glycation-inhibitory effect", "setting": "albumin [2]; all concentrations tested (0.5%, 0.1%, 0.05%, 0.01% w:v), FIG. 7", "value": "no effect"}, {"measurement": "collagen-stimulatory activity", "setting": "[4]", "value": "no significant activity"}]}, {"compound": "CN(CC(=O)O)C(=N)N", "note": "[creatine]", "values": [{"measurement": "stimulation of mitochondrial metabolism", "setting": "[6]; 500 ug/ml, 72 h", "value": 6.3, "unit": "%"}]}, {"compound": "c1cnc2c(c1)ccc1cccnc12", "note": "[phenanthroline, Phenanthroline]", "values": [{"measurement": "MP activity", "setting": "[7]", "value": "totally inhibited"}]}, {"compound": "bFGF: basic fibroblast growth factor, positive control", "values": [{"measurement": "effect on mitochondrial metabolism (MTT)", "setting": "human dermal fibroblasts; 15 nM, positive control", "value": "metabolic stimulation"}, {"measurement": "sensitivity of fibroblast mitochondrial metabolism", "setting": "[6]; results not shown", "value": "not sensitive"}]}]}
